Measured values taken from patent publication US20260209226A1 (EmpathBio, Inc., priority 2023, published 2026).
Several values for one entry are separate records, joined by “and”; a condition that tells them apart may be missing. Equal values may be shown once. Read-outs that look alike come from different tables or passages of the source.

Columns and labels:
Assay type in all cases: cell-based
[1] = molecular target: T1, Human Serotonin Transporter (SERT) (Homo sapiens, UniProt P31645); experiment: Human Serotonin Transporter (SERT) Uptake Inhibition Assay ([3H]-Serotonin uptake in HEK cells); conditions: HEK cells expressing recombinant SERT, individual experiments separated by commas; for inhibition at 10 µM: HEK293, 10 uM test compound; for inhibition at 100 µM: HEK293, 100 uM test compound; for SERT UPTAKE INHIBITION (%) @1 uM: 1 uM test compound; for SERT UPTAKE INHIBITION (%) @100 uM: 100 uM test compound; for inhibition at 1 µM: HEK293, 1 uM test compound
T1 construct: expressed in transfected cells; host or cells: HEK cells
T1 sequence (P31645 whole entry): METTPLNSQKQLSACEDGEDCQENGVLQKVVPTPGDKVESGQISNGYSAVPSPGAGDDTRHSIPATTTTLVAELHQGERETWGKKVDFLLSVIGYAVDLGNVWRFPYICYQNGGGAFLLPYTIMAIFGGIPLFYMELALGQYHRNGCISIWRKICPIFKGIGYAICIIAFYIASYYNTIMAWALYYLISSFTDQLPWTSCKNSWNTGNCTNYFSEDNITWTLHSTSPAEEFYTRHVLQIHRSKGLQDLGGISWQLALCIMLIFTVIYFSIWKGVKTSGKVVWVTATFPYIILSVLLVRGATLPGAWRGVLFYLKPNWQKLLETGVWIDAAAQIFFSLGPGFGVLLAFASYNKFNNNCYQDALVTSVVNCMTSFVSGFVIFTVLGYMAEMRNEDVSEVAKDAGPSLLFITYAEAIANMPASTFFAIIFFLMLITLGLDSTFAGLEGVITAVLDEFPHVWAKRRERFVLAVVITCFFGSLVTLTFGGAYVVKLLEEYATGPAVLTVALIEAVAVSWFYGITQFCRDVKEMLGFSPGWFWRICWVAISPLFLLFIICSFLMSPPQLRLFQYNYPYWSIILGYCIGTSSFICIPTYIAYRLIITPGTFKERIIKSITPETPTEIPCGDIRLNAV
Protocol: Compound activity is assessed using an in vitro assay. Briefly, HEK cells expressing recombinant serotonin transporter (SERT) are plated at 50,000 cells/well on a 96 well plate pre-coated with Matrigel one day prior to the experiment. Culture medium (DMEM/FBS) is removed and 30 μl of assay buffer (Tris-HCl 50 mM, EDTA 4 mM, BDA 0.1%) with the desired concentration of test compound is added. The plate is incubated at 37° C. for 15 minutes. Assay buffer (30 μl) containing the same concentration of compound diluted in [^3H]-Serotonin uptake buffer (final concentration 10 nM) is added to each well and the plate is incubated at 37° C. for 5 minutes. The reaction mixture is removed, and the cells are washed with 100 μl ice-cold assay buffer twice. Lysis buffer (50 μl) is added to the cells followed by a 5 minute incubation with gentle shaking at room temperature. The lysate is transferred to a 96 well isoplate. Optiphase supermix (100 μl) is added to each well with complete mixing. Radioactivity is counted with Microbeta Counter and reported as counts per minute (CPM). Fluoxetine is used as a control to measure non-specific uptake and for data normalization. Percent inhibition of [^3H]-Serotonin uptake calculations: 100×(1−(CPMtest sample−CPMnon_specific uptake)/(CPMMAX−CPMMIN)) are summarized in Table 2. Subsequent experiments using the same assay were performed with select compounds with a greater range of concentrations (10 half-log dilutions from a top concentration of 100 μM), allowing for the determination of IC50s. IC50s were determined using the log(inhibitor) vs. normalized response—Variable slope model in GraphPad Prism 10.1.0 and are summarized in Table 3.

[2] = molecular target: T2, Human Dopamine Transporter (DAT) (Homo sapiens, UniProt Q01959); experiment: Human Dopamine Transporter (DAT) Uptake Inhibition Assay ([3H]-Dihydroxyphenylethylamine uptake in HEK cells); conditions: HEK cells expressing recombinant DAT, individual experiments separated by commas
T2 construct: expressed in transfected cells; host or cells: HEK cells
T2 sequence (Q01959 whole entry): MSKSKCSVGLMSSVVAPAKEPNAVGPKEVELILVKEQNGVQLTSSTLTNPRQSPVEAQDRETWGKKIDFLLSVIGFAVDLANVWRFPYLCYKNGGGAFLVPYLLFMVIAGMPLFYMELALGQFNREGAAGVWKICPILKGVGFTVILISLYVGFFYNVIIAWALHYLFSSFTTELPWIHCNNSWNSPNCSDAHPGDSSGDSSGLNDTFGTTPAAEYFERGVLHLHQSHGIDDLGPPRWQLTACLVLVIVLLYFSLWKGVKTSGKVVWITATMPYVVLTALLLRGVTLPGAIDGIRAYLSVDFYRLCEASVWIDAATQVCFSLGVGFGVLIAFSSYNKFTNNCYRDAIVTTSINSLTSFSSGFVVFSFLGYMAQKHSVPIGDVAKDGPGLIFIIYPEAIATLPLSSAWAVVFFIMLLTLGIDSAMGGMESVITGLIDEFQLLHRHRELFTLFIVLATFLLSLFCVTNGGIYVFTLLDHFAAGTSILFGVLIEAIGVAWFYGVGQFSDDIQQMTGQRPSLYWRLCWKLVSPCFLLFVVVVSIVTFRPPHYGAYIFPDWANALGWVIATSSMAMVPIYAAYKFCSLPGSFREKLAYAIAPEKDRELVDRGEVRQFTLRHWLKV
Protocol: (§1) Compound activity is assessed using an in vitro assay. Briefly, HEK cells expressing recombinant dopamine transporter (DAT) are plated at 50,000 cells/well on a 96 well plate pre-coated with Matrigel one day prior to the experiment. Culture medium (DMEM/FBS) is removed and 30 μl of assay buffer (Tris-HCl 50 mM, EDTA 4 mM, BDA 0.1%) with the desired concentration of test compound is added. The plate is incubated at 37° C. for 15 minutes. Assay buffer (30 μl) containing the same concentration of compound diluted in [^3H]-Dihydroxyphenylethylamine uptake buffer (final concentration 20 nM) is added to each well and the plate is incubated at 37° C.; for 5 minutes. The reaction mixture is removed, and the cells are washed with 100 μl ice-cold assay buffer twice. Lysis buffer (50 μl) is added to the cells followed by a 5 minute incubation with gentle shaking at room temperature. The lysate is transferred to a 96 well isoplate. Optiphase supermix (100 μl) is added to each well with complete mixing. Radioactivity is counted with Microbeta Counter and reported as CPM. Nomifensine is used as a control to measure non-specific uptake and for data normalization. Percent inhibition of [^3H]-Dihydroxyphenylethylamine uptake calculations: 100×(1−(CPMtest sample−CPMnon-specific uptake)/(CPMMAX−CPMMIN)). Test compounds were screened at 10 concentrations at half-log dilutions from a top concentration of 100 μM. IC50s were determined using the log(inhibitor) vs. normalized response—Variable slope model in GraphPad Prism 10.1.0 and are summarized in Table 3.

[3] = molecular target: T3, Human Norepinephrine Transporter (NET) (Homo sapiens, UniProt P23975); experiment: Human Norepinephrine Transporter (NET) Uptake Inhibition Assay ([3H]-Norepinephrine uptake in HEK cells); conditions: HEK cells expressing recombinant NET, individual experiments separated by commas
T3 construct: expressed in transfected cells; host or cells: HEK cells
T3 sequence (P23975 whole entry): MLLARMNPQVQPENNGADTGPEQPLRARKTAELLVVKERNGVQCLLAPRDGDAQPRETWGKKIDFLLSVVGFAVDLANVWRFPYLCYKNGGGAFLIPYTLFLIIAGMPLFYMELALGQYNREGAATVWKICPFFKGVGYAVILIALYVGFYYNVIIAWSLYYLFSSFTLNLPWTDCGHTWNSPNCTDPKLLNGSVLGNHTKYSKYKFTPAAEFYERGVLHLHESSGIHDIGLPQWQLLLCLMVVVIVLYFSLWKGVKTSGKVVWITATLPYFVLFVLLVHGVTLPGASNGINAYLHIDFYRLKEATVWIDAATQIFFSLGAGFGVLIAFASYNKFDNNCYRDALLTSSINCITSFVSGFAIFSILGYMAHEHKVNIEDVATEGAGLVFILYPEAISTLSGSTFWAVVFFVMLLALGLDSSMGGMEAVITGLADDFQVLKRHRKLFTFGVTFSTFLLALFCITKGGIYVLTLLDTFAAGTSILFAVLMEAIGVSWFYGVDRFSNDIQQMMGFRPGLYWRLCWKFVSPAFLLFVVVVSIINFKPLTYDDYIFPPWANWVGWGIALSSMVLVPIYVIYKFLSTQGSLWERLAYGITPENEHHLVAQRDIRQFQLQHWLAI
Protocol: as §1, with “Norepinephrine” for “dopamine”, “(NET)” for “(DAT)”, “[^3H]-Norepinephrine” for “[^3H]-Dihydroxyphenylethylamine”, “C.” for “C.;”, “Desiparmine” for “Nomifensine”, “100×(1−CPMtest sample−CPMnon_specific” for “100×(1−(CPMtest sample−CPMnon-specific”

[4] = 10 half-log dilutions from 100 μM, read-out: DAT Uptake Inhibition IC50
[5] = 10 half-log dilutions from 100 μM, read-out: SERT Uptake Inhibition IC50
[6] = 10 half-log dilutions from 100 μM, read-out: NET Uptake Inhibition IC50

Row | Compound | inhibition at 10 µM [1] | inhibition at 100 µM [1] | SERT UPTAKE INHIBITION (%) @100 uM [1] | IC50 [2, 4] | IC50 [1, 5] | IC50 [3, 6] | other results
1 | CNC(C)Cc1ccc2conc2c1 (stereo not drawn) [Compound 10, [1-(2,1-benzoxazol-6-yl)propan-2-yl](methyl)amine] | 48.3% | 96.8% |  |  |  |  | 
2 | CNC(C)Cc1ccc2c(c1)OCO2 (stereo not drawn) [18 MDMA, 3,4-methylenedioxymethamphetamine, reference compound] | 53.3% | 85.1% | 88.7% and 98.0% and 86.2% | 5.29 µM |  |  | SERT UPTAKE INHIBITION (%) @1 uM [1]: 25.0% and −1.67%; SERT UPTAKE INHIBITION (%) @10 uM ([1]; 10 uM test compound, 10 µM): 70.1%; IC50 ([1]; SERT Uptake Inhibition IC50, 10 half-log dilutions from 100 μM): 5.25 µM and 5.08 µM and 3.19 µM and 1.48 µM and 2.07 µM and 2.21 µM; IC50 ([2]; DAT Uptake Inhibition IC50, 10 half-log dilutions from 100 μM): 3.5 µM and 5.48 µM and 7.48 µM and 10.3 µM and 13.5 µM; IC50 ([3]; NET Uptake Inhibition IC50, 10 half-log dilutions from 100 μM): 1.4 µM and 2.37 µM and 0.93 µM and 1.34 µM and 2.27 µM and 2.89 µM
3 | CC(N)Cc1ccc2scnc2c1 (stereo not drawn) [Compound 8] | 68.7% | 82.4% | 90.93% | 20.7 µM | 11.5 µM | > 100 µM | inhibition at 1 µM [1]: 24%
4 | CC(N)Cc1ccc2ncsc2c1 (stereo not drawn) [Compound 6] |  | 94.6% | 96.89% | > 100 µM | 7.5 µM | 1.1 µM | SERT UPTAKE INHIBITION (%) @1 uM [1]: 51.1% and 4.94%
5 | C[C@H](N)Cc1ccc2ncsc2c1 [Compound 14, (S)-1-(benzo[d]thiazol-6-yl)propan-2-amine] | 46.6% | 98.9% |  | > 100 µM | 6.6 µM | 5.8 µM | 
6 | CNC(C)Cc1ccc2ncnn2c1 (stereo not drawn) [Compound 12, methyl(1-{[1,2,4]triazolo[1,5-a]pyridin-6-yl}propan-2-yl)amine] | 0.25% | 83.2% |  |  |  |  | 
7 | CC(N)Cc1ccn2ccnc2c1 (stereo not drawn) [Compound 5] |  | 90.2% |  |  |  |  | inhibition at 1 µM [1]: -0.48%
8 | CNC(C)Cc1ccc2scnc2c1 (stereo not drawn) [Compound 4] | 61.8% | 91.5% | 87.43% | 35.8 µM | 11.3 µM | 8.3 µM | inhibition at 1 µM [1]: 20.2%
9 | CC(N)Cc1ccc2ncoc2c1 (stereo not drawn) [Compound 9, 1-(benzo[d]oxazol-6-yl)propan-2-amine] | -2.39% | 87.9% |  |  |  |  | 
10 | CN[C@@H](C)Cc1ccc2ncsc2c1 [Compound 16, (S)-1-(benzo[d]thiazol-6-yl)-N-methylpropan-2-amine] | 57.7% | 99.1% |  | > 100 µM | 5.1 µM | 4.2 µM | 
11 | CNC(C)Cc1ccn2ccnc2c1 (stereo not drawn) [Compound 1] |  | 91.6% |  |  |  |  | inhibition at 1 µM [1]: 3.6%
12 | C[C@@H](N)Cc1ccc2ncsc2c1 [Compound 15, (R)-1-(benzo[d]thiazol-6-yl)propan-2-amine] | 38% | 97.5% |  |  |  |  | 
13 | CNC(C)Cc1ccn2ncnc2c1 (stereo not drawn) [Compound 3] |  | 78.4% | 69.13% |  |  |  | SERT UPTAKE INHIBITION (%) @1 uM [1]: −1.21% and −1.77%
14 | CNC(C)Cc1ccc2ncsc2c1 (stereo not drawn) [Compound 2] | 67.9% | 88.8% | 93.94% and 91.08% | 21.8 µM | 10.3 µM | 4.7 µM | SERT UPTAKE INHIBITION (%) @1 uM [1]: 43.44% and −5.16%
15 | CC(N)Cc1ccc2conc2c1 (stereo not drawn) [Compound 11, 1-(2,1-benzoxazol-6-yl) propan-2-amine] | 45.5% | 96.6% |  |  |  |  | 
16 | CC(N)Cc1ccc2ncnn2c1 (stereo not drawn) [Compound 13] | 1.34% | 73.1% |  |  |  |  | 
17 | CC(N)Cc1ccn2ncnc2c1 (stereo not drawn) [Compound 7] |  |  | 84.23% and 59.35% |  |  |  | SERT UPTAKE INHIBITION (%) @1 uM [1]: 11.89% and −1.06%
18 | CN[C@H](C)Cc1ccc2ncsc2c1 [Compound 17, (R)-1-(benzo[d]thiazol-6-yl)-N-methylpropan-2-amine] | 32.5% | 95.7% |  |  |  |  | 
